Results taken from patent publication US6019970A, “Treatment of iodine deficiency diseases” (priority 1997, dated 2000).
Entries after “also recorded” stand apart in the source; their conditions may differ. Read-outs that look alike come from different tables or passages of the source.

Columns and labels:
fibrocystic disease = details: human, in vivo; cited from earlier work
[1] = test system: breast tissue from a female rat on an iodine deficient diet; test: Carcinogen added to iodine deficient rat model (FIG. 6); assay type: in vivo; details: iodine deficient diet (FIG. 6)
Description: This finding is supportive of the inventors' contention that fibrocystic disease enhances the risk of breast cancer causing sensitization of the breast tissue to various stimuli, including carcinogens. This sensitization process may explain the increased incidence of breast cancer in women in areas of deficient iodine intake, reported by Moosa et al. in "Thyroid Status and Breast Cancer", Royal College of Surgeons, England, 53, 1975.

breast cancer = test: Example 5: Incidence of breast cancer in women treated with elemental iodine; assay type: in vivo, human (women); details: comparison with published series
Description: The incidence of breast cancer in women treated with elemental iodine was compared with other published results, namely the results as published by the Ontario Cancer Research, and results published by Spratt.

[2] = test system: DMBA-induced mammary tumors; test: Dimethylbenzanthracene studies: mean tumor volume in DMBA treated rats; assay type: in vivo, Sprague-Dawley virgin female rats; details: for Mean Tumor Volume, Exp. / Mean Tumor Volume, Week 10 / Mean Tumor Volume, Week 12 / Mean Tumor Volume, Week 14 / Mean Tumor Volume, Week 16 / Mean Tumor Volume, Week 18 / Mean Tumor Volume, Week 20 / Mean Tumor Volume, Week 22: DMBA treated rats, in mm³ (unit assumed)
Procedure: After adequate orientation of 48 hours, 80 Sprague-Dawley virgin female rats (A.A.I., PA) of 100-124 grams and approximately 37 days old, were divided randomly into eight groups each containing 10 rats. The animals were identified according to their phase, group, and rat numbers. The eight groups were labelled as Groups, IA1, IA2, IB1, IB2, IIA1, IIA2, IIB1, and IIB2. Each rat was weighed and marked for identification. Ear identification were as follows:
Group I was initially fed a normal diet and provided with double distilled drinking water (Ionics and IWT). Group II was initially fed a Remington iodine-deficient diet (Teklad, WI) during which they received double distilled drinking water.
At the end of fourteen days, and at 50-56 days old, groups I and II were divided into groups A and B. Groups IA and IIA were treated with 15 mg 7,12 Dimethylbenzanthracene (Eastman Kodak, NY) dissolved in 1 ml sesame oil by gavage. Groups IB and IIB were given a sham feeding of 1 ml of sesame oil at this time also. Only 10 rats a day were given this treatment. For the first twelve hours after treatment, the rats were housed in the fume hood and then taken to the Animal House where they were placed in the same room as groups IB and IIB. The rats in groups IA and IIA continued to be fed a normal diet and iodine-deficient diet, respectively. Groups IB and IIB also continued to receive their respective diets.
The following phases received iodine replacement therapy at these times:
Phase 1--at time of initial feeding of Remington diet
Phase 2--at time of DMBA pulse
Phase 3--at 10 days after DMBA treatment
Groups IA1, IB1, IIA1, and IIB1 received 2.67 ml/1000 ml dilution of a 0.3 mg/ml "mother" iodine concentrate for the rest of the experiment. The technique for making the iodine solution was as follows:
4) A second container was used to measure 2.67 ml of concentrate to 1000 ml DD H2 O. This dilution was then used as drinking water for the animals.
This daily dosage corresponds to the rats receiving 0.07-0.09 mg per kilogram body weight. The other groups continued to receive double distilled drinking water. Thus, the groups were arranged in the following order:
Palpations of the breasts were performed twice a week for the first 30 days after pulse DMBA was administered. The masses, if any, were drawn, measured by caliper, described as to consistency and freedom of motion, and all observations were recorded. After 30 days, the above observations were taken (including framing of tumor if larger than 5 mm) every 2 days and recorded.
Group 1, which was initially fed a normal diet, and Group 2 which was initially fed a Remington iodine deficient diet. Within the two groups are four subgroups, phases 1, 2 and 3, and a control. Phase 1 received iodine replacement therapy at the time of the initial feeding of either the Remington diet or the normal diet. Phase 2 received iodine replacement therapy at the time of DMBA treatment. Phase 3 received iodine replacement therapy 10 days after DMBA treatment.
*Volumes were calculated using the formula 4/3 ((L + W) .div. 2)
All measurements were recorded in centimeters designating the greatest

endometriosis = test: Example 6: Treatment of endometriosis with iodine; assay type: in vivo, human
Description: An effective dose of elemental iodinte (I2) to cause such a subsidence of nodularity is about 1 to 20 milligrams per day. A daily dosage of elemental iodine for the treatment of endometriosis of about 3 milligrams to about 6 milligrams is also useful. The daily dosage can be administered in an aqueous solution containing about 0.30 milligrams of elemental iodine per millilitre of solution.
Two patients, both with a diagnosis of endometriosis and both treated with birth control pills previously with little result, were treated with diatomic iodine for 10 and 18 months, respectively.

[3] = test system: DMBA-induced mammary gland neoplasia; test: Example 4: Iodine treatment of induced breast tumors in rats; assay type: in vivo, rat
Description: DMBA, a carcinogen, causes mammary gland neoplasia in rats. If these tumors contain breast peroxidase, tney respond to iodine and estrogen treatment. However, as the tumors become less responsive to iodine (hormone independent), breast peroxidase is found to be lacking.

breast estrogen receptor = test: Breast estrogen receptor activity and iodine; design: species or system rat
Description: The biochemical pathway seems to be an intracellular attraction by iodine for estrogen receptors. […] Thus, cell metabolism is altered when there is "inadequate" iodine present.
A characteristic of breast cancer is the change in response to estrogen and estrogen receptor variability.

[4] = test system: breast tissue from a female rat on an iodine deficient diet; test: Iodine replacement therapy in iodine deficient rats, morphology of breast tissue; assay type: in vivo
Description: Studies on rats have included iodine replacement therapy in animals made iodine deficient by a Remington iodine-free diet.
The first iodine product used in the reversal experiment was sodium iodide.
FIG. 1 is a photomicrograph of the breast tissue of a human.
Biological Trace Element Research, Volume 5, 1983, 399-412. The material disclosed in these articles is incorporated herein by reference.
This deficiency can be obtained either through the use of an iodine deficient diet and/or through perchlorate treatment.

dysplastic mastodynia = details: women with dysplastic mastodynia; cited from earlier work
[5] = test system: breast tissue from a female rat on an iodine deficient diet; details: Remington iodine-free diet; iodide salts in food, normal and excessive levels; cited from earlier work
[6] = Group I, Normal Diet, Iodine Phase I
[7] = Group I, Normal Diet, Iodine Phase II
[8] = Group I, Normal Diet, Iodine Phase III
[9] = Group II, ID (iodine-deficient) Diet, Iodine Phase I
[10] = Group II, ID (iodine-deficient) Diet, Iodine Phase II
[11] = Group II, ID (iodine-deficient) Diet, Iodine Phase III

SMILES: C#C[C@]1(O)CC[C@H]2[C@@H]3CCC4=Cc5oncc5C[C@]4(C)[C@H]3CC[C@@]21C [danazol]
- side effects in treatment of mammary dysplasia (fibrocystic disease): massive side effects

SMILES: Cc1c2ccccc2c(C)c2c1ccc1ccccc12 [dimethyl benzanthracene, 7,12 Dimethylbenzanthracene]
- progression of fibrocystic dysplasia [1]: progression from the benign state of fibrocystic dysplasia to overt malignancy

SMILES: II [elemental iodine, diatomic iodine]
- incidence of breast cancer versus women not so treated (breast cancer): less than the incidence of breast cancer in women who had not been so treated
- Mean Tumor Volume, Exp. [2, 6]: 320.524
- Mean Tumor Volume, Week 10 [2, 6]: 15.191
- Mean Tumor Volume, Week 12 [2, 6]: 53.565
- Mean Tumor Volume, Week 14 [2, 6]: 67.739
- Mean Tumor Volume, Week 16 [2, 6]: 97.979
- Mean Tumor Volume, Week 18 [2, 6]: 136.405
- Mean Tumor Volume, Week 20 [2, 6]: 155.904
- Mean Tumor Volume, Week 22 [2, 6]: 214.962
- Mean Tumor Volume, Exp. [2, 7]: 534.001
- Mean Tumor Volume, Week 10 [2, 7]: 7.603
- Mean Tumor Volume, Week 12 [2, 7]: 57.853
- Mean Tumor Volume, Week 14 [2, 7]: 106.887
- Mean Tumor Volume, Week 16 [2, 7]: 140.751
- Mean Tumor Volume, Week 18 [2, 7]: 216.033
- Mean Tumor Volume, Week 20 [2, 7]: 247.025
- Mean Tumor Volume, Week 22 [2, 7]: 320.468
- Mean Tumor Volume, Exp. [2, 8]: 392.61
- Mean Tumor Volume, Week 10 [2, 8]: 6.686
- Mean Tumor Volume, Week 12 [2, 8]: 24.079
- Mean Tumor Volume, Week 14 [2, 8]: 75.421
- Mean Tumor Volume, Week 16 [2, 8]: 90.319
- Mean Tumor Volume, Week 18 [2, 8]: 127.529
- Mean Tumor Volume, Week 20 [2, 8]: 184.717
- Mean Tumor Volume, Week 22 [2, 8]: 319.229
- Mean Tumor Volume, Exp. [2, 9]: 337.516
- Mean Tumor Volume, Week 10 [2, 9]: 4.048
- Mean Tumor Volume, Week 12 [2, 9]: 23.367
- Mean Tumor Volume, Week 14 [2, 9]: 65.244
- Mean Tumor Volume, Week 16 [2, 9]: 119.156
- Mean Tumor Volume, Week 18 [2, 9]: 155.189
- Mean Tumor Volume, Week 20 [2, 9]: 174.49
- Mean Tumor Volume, Week 22 [2, 9]: 238.883
- Mean Tumor Volume, Exp. [2, 10]: 613.044
- Mean Tumor Volume, Week 10 [2, 10]: 0.216
- Mean Tumor Volume, Week 12 [2, 10]: 54.934
- Mean Tumor Volume, Week 14 [2, 10]: 111.962
- Mean Tumor Volume, Week 16 [2, 10]: 168.475
- Mean Tumor Volume, Week 18 [2, 10]: 269.008
- Mean Tumor Volume, Week 20 [2, 10]: 401.774
- Mean Tumor Volume, Week 22 [2, 10]: 519.122
- Mean Tumor Volume, Exp. [2, 11]: 500.435
- Mean Tumor Volume, Week 10 [2, 11]: 5.816
- Mean Tumor Volume, Week 12 [2, 11]: 36.68
- Mean Tumor Volume, Week 14 [2, 11]: 81.81
- Mean Tumor Volume, Week 16 [2, 11]: 177.888
- Mean Tumor Volume, Week 18 [2, 11]: 203.824
- Mean Tumor Volume, Week 20 [2, 11]: 356.807
- Mean Tumor Volume, Week 22 [2, 11]: 393.328
- mean tumor volume, in words ([2]; pretreatment before DMBA, versus nontreated controls): reduction of mean tumor volume as compared to the nontreated controls; also recorded: reduced the mean tumor volume in the DMBA treated rats
- nodularity of pelvic peritoneum (endometriosis; about 1 to 20 milligrams per day): subsidence of the nodularity of the patient's pelvic peritoneum
- overall response to iodine treatment, series of patients (endometriosis; no other medication during trial therapy): This series of patients has responded
- effect of stopping medication (endometriosis; third patient): asymptomatic for two cycles, and then their pain returned
- pelvic pain and nodularity on treatment (endometriosis; third patient): within two cycles, with complete relief of pelvic pain and improvement in the pelvic nodularity on rectal examination
- cyclic lower abdominal pain (endometriosis; three patients treated for fibrocystic breast dysplasia): coincident dramatic decrease in their cyclic lower abdominal pain
- effect of restarting medication (endometriosis; two patients): The subjective symptoms and physical findings again improved within one cycle
- effect of stopping medication (endometriosis; two patients): within one cycle, they had severe pain again, with increasing nodularity of the pelvic peritoneum on rectal examination
- pain on treatment (endometriosis; two patients, 10 and 18 months): complete amelioration of their pain within one cycle of starting the medication
- tumor response ([3]; about 0.5 mg per 100 gm body weight, orally or intraperitoneally, preliminary): more response to both diatomic iodine and estrogen
- breast estrogen receptor activities after iodine replacement (breast estrogen receptor; iodine deficiency): disappears upon iodine replacement
- role in estrogen receptor function (breast estrogen receptor; rats): necessary for normal estrogen receptor function in rats

SMILES: [O-][Cl+3]([O-])([O-])O [perchlorate, reference compound]
- effect on tumorigenesis and iodide therapy ([3]; peroxidase-blocking agent): increases the tumorigenesis and the effectiveness of iodide therapy

SMILES: [I-].[K+] [potassium iodide, reference compound]
- reversal of pathological changes / tissue morphology of rat breast after iodine replacement [4]: only minimal success
- improvement rate (dysplastic mastodynia): 71%

SMILES: [I-].[Na+] [sodium iodide, reference compound]
- breast dysplasia after iodine replacement [5]: the breast dysplasia appeared to abate with a partial subsidence of epithelial hyperplasia and a loss of cystic spaces but with a continuation of the fibrosis of the syndrome
- reversal of pathological changes / tissue morphology of rat breast after iodine replacement [4]: reversal of the pathological changes to a degree with the partial subsidence of cyst formation, epithelial hyperplasia and fibrosis. The interacinar fibrosis remained
- reversal of pathological changes / tissue morphology of rat breast after iodine replacement ([4]; listed as sodium iodide (NaI)): only minimal success
- reversal of pathological changes / tissue morphology of rat breast after iodine replacement ([4]; listed as sodium iodine): The epithelial hyperplasia regressed and the cystic spaces disappeared, but the fibrous tissue remained
